Counter-ions that a name gives are not always drawn.
Target: T1, ENaC (Homo sapiens, UniProt P37088+P51168+P51170)
T1 construct: host or cells: primary human bronchial epithelial cells (HBECs) differentiated at an air-liquid interface
T1 sequence (P37088 1-669): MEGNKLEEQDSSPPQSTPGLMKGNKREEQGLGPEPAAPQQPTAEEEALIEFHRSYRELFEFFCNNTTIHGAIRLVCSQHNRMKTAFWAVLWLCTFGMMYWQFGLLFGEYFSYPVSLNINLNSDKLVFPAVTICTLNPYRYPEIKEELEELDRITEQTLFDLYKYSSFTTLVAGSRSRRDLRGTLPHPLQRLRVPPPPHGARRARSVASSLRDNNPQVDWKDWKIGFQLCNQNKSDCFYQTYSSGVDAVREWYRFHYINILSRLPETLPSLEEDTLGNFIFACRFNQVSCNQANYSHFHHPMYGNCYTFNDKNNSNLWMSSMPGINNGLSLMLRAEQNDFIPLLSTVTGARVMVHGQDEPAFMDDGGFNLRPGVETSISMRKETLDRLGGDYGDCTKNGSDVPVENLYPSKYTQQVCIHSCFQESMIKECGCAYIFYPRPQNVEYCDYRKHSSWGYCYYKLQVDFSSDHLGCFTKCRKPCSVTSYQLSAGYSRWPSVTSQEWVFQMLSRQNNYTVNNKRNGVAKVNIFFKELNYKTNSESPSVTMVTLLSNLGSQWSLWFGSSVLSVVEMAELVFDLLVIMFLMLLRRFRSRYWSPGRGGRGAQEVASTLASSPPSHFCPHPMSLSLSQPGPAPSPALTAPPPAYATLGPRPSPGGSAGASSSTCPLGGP
T1 sequence (P51168 1-640): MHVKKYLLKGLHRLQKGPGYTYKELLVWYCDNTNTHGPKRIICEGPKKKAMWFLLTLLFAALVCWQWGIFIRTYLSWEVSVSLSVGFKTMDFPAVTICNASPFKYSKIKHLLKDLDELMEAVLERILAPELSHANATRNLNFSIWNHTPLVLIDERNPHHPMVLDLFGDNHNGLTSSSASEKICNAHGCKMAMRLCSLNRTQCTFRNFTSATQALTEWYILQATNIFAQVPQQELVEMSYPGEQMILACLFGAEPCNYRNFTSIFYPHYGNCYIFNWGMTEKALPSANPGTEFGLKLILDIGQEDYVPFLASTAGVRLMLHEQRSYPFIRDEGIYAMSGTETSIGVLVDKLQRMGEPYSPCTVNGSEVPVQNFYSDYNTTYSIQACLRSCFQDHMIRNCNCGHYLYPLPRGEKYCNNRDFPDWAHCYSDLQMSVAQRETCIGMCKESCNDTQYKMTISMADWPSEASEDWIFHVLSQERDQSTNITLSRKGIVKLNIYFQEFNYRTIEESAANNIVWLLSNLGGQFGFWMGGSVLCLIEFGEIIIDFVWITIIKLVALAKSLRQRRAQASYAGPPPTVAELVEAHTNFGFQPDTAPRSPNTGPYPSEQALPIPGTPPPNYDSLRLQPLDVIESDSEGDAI
T1 sequence (P51170 1-649): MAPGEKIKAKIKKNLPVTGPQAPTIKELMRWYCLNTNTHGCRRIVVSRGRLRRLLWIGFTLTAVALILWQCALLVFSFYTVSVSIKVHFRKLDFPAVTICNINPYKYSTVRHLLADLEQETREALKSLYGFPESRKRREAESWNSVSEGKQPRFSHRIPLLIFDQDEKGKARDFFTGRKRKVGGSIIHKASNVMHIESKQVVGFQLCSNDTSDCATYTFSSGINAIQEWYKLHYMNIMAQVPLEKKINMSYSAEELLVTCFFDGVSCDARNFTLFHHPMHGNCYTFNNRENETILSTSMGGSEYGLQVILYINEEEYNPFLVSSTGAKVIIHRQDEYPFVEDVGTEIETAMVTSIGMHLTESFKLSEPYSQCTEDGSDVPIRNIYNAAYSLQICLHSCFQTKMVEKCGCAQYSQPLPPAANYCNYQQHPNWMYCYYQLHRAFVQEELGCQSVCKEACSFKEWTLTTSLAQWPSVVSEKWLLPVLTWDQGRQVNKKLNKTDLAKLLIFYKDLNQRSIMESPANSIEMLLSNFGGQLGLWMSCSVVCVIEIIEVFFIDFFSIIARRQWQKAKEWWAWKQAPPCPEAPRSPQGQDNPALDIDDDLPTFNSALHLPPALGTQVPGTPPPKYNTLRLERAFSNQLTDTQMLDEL
Experiment: Short circuit current assay to determine ENaC blocker potency in human bronchial epithelial cells
Assay type: cell-based
Details: 50% inhibition of total amiloride-sensitive ISC, HBECs, apical addition; read-out: Averages. ENaC Ic50 μm Avg
Procedure: Example 27—Short Circuit Current Assay to Determine ENaC Blocker Potency in Human Bronchial Epithelial Cells
Human bronchial epithelial cells (HBECs) (Lonza, UK) were cultured using a modification of the method described by Coote et al, (2008). Cells were seeded into plastic T-75 flasks and grown in Bronchial Epithelial Cell Growth Medium (BEGM) (Lonza, UK) supplemented with bovine pituitary extract (52 ng/mL), hydrocortisone (0.5 μg/mL), human recombinant Epidermal Growth Factor (0.5 ng/mL), epinephrine (0.5 ng/mL), transferrin (10 ng/mL), insulin (5 ng/mL), retinoic acid (0.1 ng/mL), triiodothyronine (6.5 ng/mL), gentamycin (50 μg/mL) and amphotericin-B (50 ng/mL). Medium was changed every 48 hours until cells were 90% confluent. Cells were then passaged and seeded (8.25×10^5 cells/insert) onto polycarbonate Snapwell™ inserts (Costar, UK) in differentiation media containing 50% DMEM in BGEM with the same supplements as above but without triiodothyronine and a final retinoic acid concentration of 50 nM (all-trans retinoic acid; Sigma-Aldrich, UK). Cells were maintained submerged for the first 7 days in culture after which time they were exposed to an apical air interface for the remainder of the culture period. From the first day of establishment of an ALI, HBEC were fed with a DMEM:HAMS F-12 (1:1) media containing 2% Ultroser G (Pall BioSepra, France) with gentamycin (50 μg/mL) and amphotericin B (50 ng/mL). Cells were used for short-circuit current assay between days 14-21 after the establishment of the ALI. At all stages of culture, cells were maintained at 37′C in 5% CO2 in an air incubator.
Short-Circuit Current (ISC) Measurements
Snapwell inserts were mounted in Costar Vertical Diffusion Chambers (Costar, UK) and were bathed with continuously gassed Ringer solution (5% CO2 in O2; pH 7.4) maintained at 37° C. containing (in mM): 120 NaCl, 25 NaHCO3, 3.3 KH2PO4, 0.8 K2HPO4, 1.2 CaCl2, 1.2 MgCl2 and 10 glucose. The solution osmolarity was always between 280-300 mOsm/kg H2O for all physiological salt solutions used. Cells were voltage clamped to 0 mV (model EVC4000, WPI). Transepithelial resistance (RT) was measured by applying a 2 mV pulse at 30 s intervals and calculating RT by Ohm's law. Data were recorded using a PowerLab workstation (ADInstruments, UK).
ENaC blocker compounds were added to the apical chamber from a 1000-fold stock solution (prepared in DMSO) to achieve a cumulative concentration response in terms of the inhibition of the basal ISC. At the completion of the concentration response, a supra-maximal concentration of amiloride (10 μM) was added. The concentration of test compound that induced a 50% inhibition of the total amiloride-sensitive ISC (IC50) was calculated using GraphPad Prism v6.05.

Row | SMILES | IC50 [nM]
1 | CCn1c(CNC(=O)c2nc(Br)cnc2N)[n+](CC)c2ccc(-c3cnn(C4CCN(C[C@H](O)[C@@H](O)[C@H](O)[C@H](O)CO)CC4)c3)cc21.O=CO.[Cl-] [Example 23, 2-{[(3-amino-6-bromopyrazin-2-yl)formamido]methyl}-1,3-diethyl-6-(1-{1-[(2S,3R,4R,5R)-2,3,4,5,6-pentahydroxyhexyl]piperidin-4-yl}-1H-pyrazol-4-yl)-1H-1,3-benzodiazol-3-ium formic acid chloride] | 2
2 | CCn1c(CNC(=O)c2nc(SC)cnc2N)[n+](C)c2ccc(OC)cc21.[I-] [Example 9, 2-({[3-amino-6-(methylsulfanyl)pyrazin-2-yl]formamido}methyl)-1-ethyl-6-methoxy-3-methyl-1H-1,3-benzodiazol-3-ium iodide] | 74
3 | CCn1c(CNC(=O)c2nc(Br)cnc2N)[n+](CC)c2ccc(-c3cnn(C4CCN(C(=N)N)CC4)c3)cc21.O=CO.O=C[O-] [Example 22, 2-{[(3-amino-6-bromopyrazin-2-yl)formamido]methyl}-6-[1-(1-carbamimidoylpiperidin-4-yl)-1H-pyrazol-4-yl]-1,3-diethyl-1H-1,3-benzodiazol-3-ium formic acid formate] | 2
4 | CCn1c(CNC(=O)c2nc(Br)cnc2N)[n+](C)c2ccc(C(F)(F)F)cc21.[I-] [Example 13, 2-{[(3-amino-6-bromopyrazin-2-yl)formamido]methyl}-1-ethyl-3-methyl-6-(trifluoromethyl)-1H-1,3-benzodiazol-3-ium iodide] | 4
5 | CCn1c(CNC(=O)c2nc(C)cnc2N)[n+](C)c2ccc(OC)cc21.[I-] [Example 7, 2-{[(3-amino-6-methylpyrazin-2-yl)formamido]methyl}-1-ethyl-6-methoxy-3-methyl-1H-1,3-benzodiazol-3-ium iodide] | 4
6 | CCn1c(CNC(=O)c2nc(Br)cnc2N)[n+](CC)c2ccc(C(=O)N[C@H]3CCOC3=O)cc21 [Example 18, 2-{[(3-amino-6-bromopyrazin-2-yl)formamido]methyl}-1,3-diethyl-6-{[(3S)-2-oxooxolan-3-yl]carbamoyl}-1H-1,3-benzodiazol-3-ium formate] | 4

— patent publication US10759785B2, “Compounds” (ENTERPRISE THERAPEUTICS LIMITED, priority 2016, dated 2020)
